A short description of series [1]: In vitro cytotoxicity assay (MTT cell viability) in HepG2 cells. The format is cell-based, human. To be noted: human. In a few lines:
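CC50 was derived by 4-parameter fit of viability relative to vehicle controls, measured as MTT formazan absorbance at 492 nm after 3–4 h of reagent and DMSO solubilization. Before that, HepG2 cells seeded overnight at 20,000/well were incubated 7 days at 37°C with compound from 30 μM down to 1.0 nM in half-log steps.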

For the next series, the system named is HBV. The experiment in a line: In vitro antiviral assay: anti-HBV replication in HepAD38 cells (extracellular HBV DNA by QPCR). The format is cell-based, hepatitis B virus (genotype D, serotype ayw). To be noted: Hepatitis B virus, HePAD38, 168 h, 7 days incubation, extracellular HBV DNA by QPCR, read-out: Anti-HBV EC50. In outline:
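HepG2-derived HepAD38 cells (HBV genotype D, ayw, tet-repressible CMV) induced by tetracycline withdrawal, treated 7 days at 37 °C with compound (1 μM to 10 pM, 10-fold steps). Supernatant HBV DNA quantified by QPCR against standard curve, percent of DMSO control; EC50 by 4-parameter fit; entecavir positive control.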

The text below walks through data of patent publication US20230107941A1, “HEPATITIS B CAPSID ASSEMBLY MODULATORS” (Venatorx Pharmaceuticals, Inc., priority 2019, published 2023).

In series [1], `Cc1cc(NC(=O)c2c(C)c(C(=O)C(=O)N[C@]3(C)C[C@H](O)C3)n(C)c2CC2CC2)ccc1F` [Example 123, 2-(cyclopropylmethyl)-N-(4-fluoro-3-methylphenyl)-5-(2-(((1s,3s)-3-hydroxy-1-methylcyclobutyl)amino)-2-oxoacetyl)-1,4-dimethyl-1H-pyrrole-3-carboxamide] registered a cytotoxic concentration (CC50) at 7 days greater than 30000 nM. In the series on HBV, the EC50 is less than 50 nM.

In turn, `Cc1cc(NC(=O)c2c(C)c(C(=O)C(=O)N[C@H]3CC[C@@H](S(C)(=O)=O)CC3)n(C)c2CC2CC2)ccc1F` [Example 124, 2-(cyclopropylmethyl)-N-(4-fluoro-3-methylphenyl)-1,4-dimethyl-5-(2-(((1s,4s)-4-(methylsulfonyl)cyclohexyl)amino)-2-oxoacetyl)-1H-pyrrole-3-carboxamide] had a CC50 at 7 days in series [1] greater than 30000 nM. Moreover, in the series on HBV, the 50% effective concentration (EC50) was 50 to 499 nM.

For `Cc1cc(NC(=O)c2c(C)c(C(=O)C(=O)N[C@]3(C)CC[C@H](O)CC3)n(C)c2CC2CC2)ccc1F` [Example 125, 2-(cyclopropylmethyl)-N-(4-fluoro-3-methylphenyl)-5-(2-(((1s,4s)-4-hydroxy-1-methylcyclohexyl)amino)-2-oxoacetyl)-1,4-dimethyl-1H-pyrrole-3-carboxamide], in series [1], the cytotoxic concentration (CC50) at 7 days is greater than 30000 nM. Moreover, the EC50 with HBV is less than 50 nM.

As to `Cc1cc(NC(=O)c2c(C)c(C(=O)C(=O)N[C@H]3CC[C@@H](O)CC3)n(C)c2CC2CC2)ccc1F` [Example 126, 2-(cyclopropylmethyl)-N-(4-fluoro-3-methylphenyl)-5-(2-(((1s,4s)-4-hydroxycyclohexyl)amino)-2-oxoacetyl)-1,4-dimethyl-1H-pyrrole-3-carboxamide], the CC50 at 7 days in series [1] was greater than 30000 nM. Further, the concentration giving a half-maximal response (EC50) with HBV was less than 50 nM.

As for `Cc1cc(NC(=O)c2c(C)c(C(=O)C(=O)NCC(C)(C)O)n(C)c2CC2CC2)ccc1F` [Example 127, 2-(cyclopropylmethyl)-N-(4-fluoro-3-methylphenyl)-5-(2-((2-hydroxy-2-methylpropyl)amino)-2-oxoacetyl)-1,4-dimethyl-1H-pyrrole-3-carboxamide], in series [1], the CC50 at 7 days lay in the range of 5000 to 30000 nM. Besides, the EC50 in the series with HBV is less than 50 nM.

For `Cc1cc(NC(=O)c2c(C)c(C(=O)C(=O)N[C@]3(C)C[C@H](O)C3)n(C)c2C2CC2)ccc1F` [Example 128, 2-cyclopropyl-N-(4-fluoro-3-methylphenyl)-5-(2-(((1s,3s)-3-hydroxy-1-methylcyclobutyl)amino)-2-oxoacetyl)-1,4-dimethyl-1H-pyrrole-3-carboxamide], the half-maximal cytotoxic concentration (CC50) at 7 days in series [1] is greater than 30000 nM. Moreover, in the series with HBV, the EC50 is less than 50 nM.

`Cc1cc(NC(=O)c2c(C)c(C(=O)C(=O)N[C@H]3CC[C@@H](S(C)(=O)=O)CC3)n(C)c2C2CC2)ccc1F` [Example 129, 2-cyclopropyl-N-(4-fluoro-3-methylphenyl)-1,4-dimethyl-5-(2-(((1s,4s)-4-(methylsulfonyl)cyclohexyl)amino)-2-oxoacetyl)-1H-pyrrole-3-carboxamide]: the CC50 at 7 days in series [1] was greater than 30000 nM. Besides, the EC50 with HBV was less than 50 nM.

As for `Cc1cc(NC(=O)c2c(C)c(C(=O)C(=O)NCC(C)(C)O)n(C)c2C2CC2)ccc1F` [Example 130, 2-cyclopropyl-N-(4-fluoro-3-methylphenyl)-5-(2-((2-hydroxy-2-methylpropyl)amino)-2-oxoacetyl)-1,4-dimethyl-1H-pyrrole-3-carboxamide], the 50% cytotoxic concentration (CC50) at 7 days in series [1] lay in the range of 5000 to 30000 nM. Also, in the series with HBV, the EC50 is less than 50 nM.

In series [1], `Cc1cc(NC(=O)c2c(C)c(C(=O)C(=O)N[C@H]3CC[C@@H](S(C)(=O)=O)CC3)n(C)c2C2CCCC2)ccc1F` [Example 131, 2-cyclopentyl-N-(4-fluoro-3-methylphenyl)-1,4-dimethyl-5-(2-(((1s,4s)-4-(methylsulfonyl)cyclohexyl)amino)-2-oxoacetyl)-1H-pyrrole-3-carboxamide] came in with a CC50 at 7 days of 5000 to 30000 nM. Further, the EC50 in the series on HBV is greater than 1000 nM.

As to `Cc1cc(NC(=O)c2c(C)c(C(=O)C(=O)N[C@]3(C)C[C@H](O)C3)n(C)c2C2CCCC2)ccc1F` [Example 132, 2-cyclopentyl-N-(4-fluoro-3-methylphenyl)-5-(2-(((1s,3s)-3-hydroxy-1-methylcyclobutyl)amino)-2-oxoacetyl)-1,4-dimethyl-1H-pyrrole-3-carboxamide], the half-maximal cytotoxic concentration (CC50) at 7 days in series [1] is greater than 30000 nM. Moreover, the EC50 in the series on HBV was 50 to 499 nM.

Take `Cc1cc(NC(=O)c2c(C)c(C(=O)C(=O)N[C@]3(C)CC[C@H](O)CC3)n(C)c2C2CCCC2)ccc1F` [Example 133, 2-cyclopentyl-N-(4-fluoro-3-methylphenyl)-5-(2-(((1s,4s)-4-hydroxy-1-methylcyclohexyl)amino)-2-oxoacetyl)-1,4-dimethyl-1H-pyrrole-3-carboxamide]: the CC50 at 7 days in series [1] was greater than 30000 nM. The EC50 in the series with HBV was less than 50 nM.

`Cc1cc(NC(=O)c2c(C)c(C(=O)C(=O)N[C@H]3CC[C@@H](O)CC3)n(C)c2C2CCCC2)ccc1F` [Example 134, 2-cyclopentyl-N-(4-fluoro-3-methylphenyl)-5-(2-(((1s,4s)-4-hydroxycyclohexyl)amino)-2-oxoacetyl)-1,4-dimethyl-1H-pyrrole-3-carboxamide] registered a CC50 at 7 days in series [1] greater than 30000 nM. For the same compound, the EC50 in the series on HBV lay within 50 to 499 nM.

Compound `Cc1cc(NC(=O)c2c(C)c(C(=O)C(=O)NCC(C)(C)O)n(C)c2C2CCCC2)ccc1F` [Example 135, 2-cyclopentyl-N-(4-fluoro-3-methylphenyl)-5-(2-((2-hydroxy-2-methylpropyl)amino)-2-oxoacetyl)-1,4-dimethyl-1H-pyrrole-3-carboxamide] returned a CC50 at 7 days in series [1] greater than 30000 nM. Moreover, the EC50 in the series with HBV was 50 to 499 nM.

`Cc1c(C(=O)Nc2ccc(F)c(C3CC3)c2)c(C)n(C)c1C(=O)C(=O)N[C@]1(C)CC[C@@H](O)CC1` [Example 136, N-(3-cyclopropyl-4-fluorophenyl)-5-(2-(((1r,4r)-4-hydroxy-1-methylcyclohexyl)amino)-2-oxoacetyl)-1,2,4-trimethyl-1H-pyrrole-3-carboxamide]: the CC50 at 7 days in series [1] was greater than 30000 nM. Moreover, the concentration giving a half-maximal response (EC50) in the series with HBV is less than 50 nM.

In series [1], `Cc1c(C(=O)Nc2ccc(F)cc2)c(C)n(C)c1C(=O)C(=O)N[C@]1(C)CC[C@@H](O)CC1` [Example 137, N-(4-fluorophenyl)-5-(2-(((1r,4r)-4-hydroxy-1-methylcyclohexyl)amino)-2-oxoacetyl)-1,2,4-trimethyl-1H-pyrrole-3-carboxamide] displayed a CC50 at 7 days greater than 30000 nM. Also, the EC50 in the series with HBV was less than 50 nM.

The compound `Cc1c(C(=O)Nc2ccc(F)c(C3CC3)c2)c(C)n(C)c1C(=O)C(=O)NC(C)(C)C` [Example 138, 5-(2-(tert-butylamino)-2-oxoacetyl)-N-(3-cyclopropyl-4-fluorophenyl)-1,2,4-trimethyl-1H-pyrrole-3-carboxamide] registered a CC50 at 7 days in series [1] greater than 30000 nM. Further, the EC50 in the series on HBV is less than 50 nM.

Turning to `Cc1c(C(=O)Nc2ccc(F)c(-c3nc[nH]n3)c2)c(C)n(C)c1C(=O)C(=O)NC(C)(C)C` [Example 139, 5-(2-(tert-butylamino)-2-oxoacetyl)-N-(4-fluoro-3-(1H-1,2,4-triazol-3-yl)phenyl)-1,2,4-trimethyl-1H-pyrrole-3-carboxamide], in series [1], the CC50 at 7 days was greater than 30000 nM. For the same compound, the EC50 with HBV is greater than 1000 nM.

In series [1], `Cc1c(C(=O)Nc2ccc(F)c(C#N)c2)c(C)n(C)c1C(=O)C(=O)Nc1ccc(B(O)O)cc1` [Example 140, (4-(2-(4-((3-cyano-4-fluorophenyl)carbamoyl)-1,3,5-trimethyl-1H-pyrrol-2-yl)-2-oxoacetamido)phenyl)boronic acid] had a CC50 at 7 days greater than 30000 nM. The EC50 in the series on HBV was less than 50 nM.

With `Cc1c(C(=O)Nc2ccc(F)c(C#N)c2)c(C)n(C)c1C(=O)C(=O)Nc1cccc(B(O)O)c1` [Example 141, (3-(2-(4-((3-cyano-4-fluorophenyl)carbamoyl)-1,3,5-trimethyl-1H-pyrrol-2-yl)-2-oxoacetamido)phenyl)boronic acid], in series [1], the CC50 at 7 days was greater than 30000 nM. Besides, in the series on HBV, the EC50 lay within 50 to 499 nM.

Compound `Cc1cc(NC(=O)c2c(C)c(C(=O)C(=O)N[C@H]3CC[C@@H](OCC(=O)O)CC3)n(C)c2C)ccc1F` [Example 144, 2-(((1s,4s)-4-(2-(4-((4-fluoro-3-methylphenyl)carbamoyl)-1,3,5-trimethyl-1H-pyrrol-2-yl)-2-oxoacetamido)cyclohexyl)oxy) acetic acid] returned a 50% cytotoxic concentration (CC50) at 7 days in series [1] greater than 30000 nM. The EC50 in the series on HBV lay within 50 to 499 nM.

Compound `Cc1cc(NC(=O)c2c(C)c(C(=O)C(=O)NC3(CC(=O)O)CCNCC3)n(C)c2C)ccc1F` [Example 145, 2-(4-(2-(4-((4-fluoro-3-methylphenyl)carbamoyl)-1,3,5-trimethyl-1H-pyrrol-2-yl)-2-oxoacetamido)piperidin-4-yl)acetic acid] had a CC50 at 7 days in series [1] greater than 30000 nM. The concentration for a half-maximal effect (EC50) with HBV lay in the range of 50 to 499 nM.

`Cc1cc(NC(=O)c2c(C)c(C(=O)C(=O)NC3(CC(=O)O)CCCNC3)n(C)c2C)ccc1F` (stereo not shown) [Example 146, 2-(3-(2-(4-((4-fluoro-3-methylphenyl)carbamoyl)-1,3,5-trimethyl-1H-pyrrol-2-yl)-2-oxoacetamido)piperidin-3-yl)acetic acid]: the CC50 at 7 days in series [1] is greater than 30000 nM. Besides, the EC50 in the series on HBV was greater than 1000 nM.

`CC(=O)N1CC[C@@H](NC(=O)C(=O)c2c(C)c(C(=O)Nc3ccc(F)c(C)c3)c(C)n2C)[C@H](F)C1` [Example 147, 5-(2-(((3R,4R)-1-acetyl-3-fluoropiperidin-4-yl)amino)-2-oxoacetyl)-N-(4-fluoro-3-methylphenyl)-1,2,4-trimethyl-1H-pyrrole-3-carboxamide] registered a half-maximal cytotoxic concentration (CC50) at 7 days in series [1] greater than 30000 nM. The EC50 in the series with HBV is less than 50 nM.

Usually CC50 stands for the concentration giving 50% cytotoxicity. Read a high CC50 as lower toxicity to the cells. The term EC50 denotes the midpoint of the concentration-response curve.
